Test [1] relates to Contig2631_at, Lipase-like Protein (jasmonic acid biosynthesis gene). As to the kind of experiment: Gene expression profiling (GEP), barley DNA chip, probe set 1.1. The test is classed as in vivo. Also on record: fold induction: dose or concentration left out as unconfirmed. As to conditions: for fold induction / fold induction at 150 g/ha: Hordeum vulgare; for fold induction: rates of Table 1 (S7 500); for fold induction at 150 g/ha: 6 h, read-out: Expression value, 1.1 Contig2631_at. The method, then:
(§1) Barley plants (cv. Baronesse) were grown in compost-filled pots (diameter: 10 cm) for 10 days in a controlled-environment cabinet under defined light, humidity and temperature conditions (white light, 70% atmospheric humidity, 24° C.). At the time of spray application, the seedlings were approximately 15 cm in size. The test substances selected in this example were molecules which differ markedly in their structure and which have a well documented pronounced safener effect, and other molecules which are known from the literature to have an effect on plant stress and pathogen tolerance (Table 1). The substances were prepared as stock solutions in DMSO (dimethyl sulfoxide) at c=10 mg/ml). This was used for preparing dilutions in water supplemented with 0.2% Agrotin (comprises polyvinyl alcohol, silicones, polysaccharides and pH regulators, manufacturer: Bayer CropScience AG, Monheim, Germany), as wetter, to give the application rates shown in the table. The amount of liquid for the spray application was 800 μl per pot, corresponding to 800 l/ha. For each 800 μl of spray mixture, 16 μl of EC premix: diacetone alcohol=1:6 were additionally added as formulation auxiliaries. The substances listed in Table 1 were applied to the leaves by means of a pneumatic spray pistol. Each substance was sprayed as 2 dosages, and all experiments were carried out as replicates (2 pots per substance). Sprayings with blank formulation without active ingredient were carried out as controls. After 6 hours, the leaves were harvested, frozen in liquid nitrogen and stored at −80° C. until further use. The labeled RNA probes for the DNA chip hybridization were prepared as described in the protocols (Expression Analysis, Technical Manual) from Affymetrix (Affymetrix Inc., 3380 Central Expressway, Santa Clara, Calif., USA). First, total RNA was isolated from in each case 500 mg of the harvested leaves. In each case 10 μg of total RNA was used for the first-strand and second-strand cDNA synthesis. The cDNA was amplified with T7 polymerase and simultaneously labeled with biotin-UTP. In each case, 20 μg of this biotinylated cDNA was employed for the hybridization of the barley genome array (Gene Chip Barleyl, order No.: 511012) from Affymetrix. This DNA microarray comprises DNA sequences of 22 840 genes which are composed of a total of 400 000 EST sequences. Thereafter, the DNA microarrays were washed in the Affymetrix Fluidics Station, stained with streptavidin/phycoerythrin (Molecular Probes, P/N S-866) and scanned with the matching Agilent Laser Scanner (Agilent Gene Array Scanner). The fluorescent data obtained were analyzed with the software Microarray Suite 5 from Affymetrix. After the quality had been checked, all DNA chip analyses were stored in a database. To determine the relative expression values for genes (induction factors, repression factors), test and control chips were compared with each other, and the scoring function set by the Affymetrix software was used as the basis. The 2 biological replications of one experiment were compared in each case with 2 control chips (blank formulation), and the 4 expression values obtained for each gene were used for calculating the median. These medians are shown in the results tables as induction factors. Similarity comparisons of expression profiles from different experiments and cluster analyses were carried out using the software GeneMaths 1.5 from Applied Maths (Applied Maths, Keistraat 120, 9830 Sint-Martens-Latem, Belgium).
(§2) Gene groups from specific metabolic pathways and signal transduction chains were put together by key word search in the annotations, of the genes, which were also provided by Affymetrix, and by Blast analyses (homology comparisons) of the DNA target sequences, i.e. of the positive sequence (identified on the basis of a modified expression profile) identified on the DNA chip, using gene sequences from other organisms, preferably plant organisms, with characterized functions. […]

The subject of test [2] is HV_Ceb0020D05r2_s_at, Allene oxide cyclase. In words: GEP, barley DNA chip, probe set 1.6. To be noted: Hordeum vulgare, topical, read-out: Expression value, 1.6 HV_Ceb0020 D05r2_s_at; for fold induction: barley leaves 6 h after spray application, rates of Table 1 (S7 500), median induction factor vs control; for fold induction at 150 g/ha: 6 h. The test is classed as in vivo. Further details: fold induction: dose or concentration left out as unconfirmed. Here is the method: as §1, §2

Test [3] deals with Contig6611_at, Similar to lipases. As to the kind of experiment: GEP, barley DNA chip, probe set 1.12. Further details: fold induction: dose or concentration left out as unconfirmed. As to conditions: for fold induction / fold induction at 150 g/ha: Hordeum vulgare, topical, read-out: Expression value, 1.12 Contig6611_at; for fold induction: rates of Table 1 (S7 500); for fold induction at 150 g/ha: 6 h. It counts as in vivo. The method, then: as §1, §2

For test [4], the system named is Contig3096_s_at, Allene oxide synthase. In words: GEP, barley DNA chip, probe set 1.16. It counts as in vivo. Also on record: fold induction: dose or concentration left out as unconfirmed. As to conditions: for fold induction / fold induction at 150 g/ha: Hordeum vulgare, topical, read-out: Expression value, 1.16 Contig3096_s_at; for fold induction: rates of Table 1 (S7 500); for fold induction at 150 g/ha: 6 h. Here is the method: as §1, §2

The test system of test [5] is HD07M22r_s_at, Proteinase-Inhibitor (pir S71555, barley). As to the kind of experiment: GEP, barley DNA chip, probe set 2.4. The test is classed as in vivo. Also on record: fold induction: dose or concentration left out as unconfirmed. As to conditions: for fold induction / fold induction at 150 g/ha: Hordeum vulgare, topical, read-out: Expression value, 2.4 HD07M22r_s_at; for fold induction: rates of Table 1 (S7 500); for fold induction at 150 g/ha: 6 h. The method, then: as §1, §2

Test [6] relates to Rhopalosiphum padi. As to the kind of experiment: Repellent effect of safener-treated plants on phytopathogenic insects. It counts as in vivo. As to conditions: barley sprayed with 150 g a.i./ha, infested 6 h or 24 h after application, average. The method, then: Barley plants (cv. Baronesse) were grown as described in Example 1 and, after 10 days, treated by spray application with 150 g a.i./ha of isoxadifen-ethyl (S 3) or blank formulation. The experiments were carried out in replications of in each case 10 pots.
6 hours or 24 hours after the substance had been applied, all pots were infested uniformly with a population of the phytopathogenic aphid Rhopalosiphum padi. The experiments were evaluated after 7 days and 14 days by counting the animals on the leaves.

Test [7] deals with aphids. In words: Plant-free Sachez test, direct toxicity. It counts as in vivo. The text has this:
A direct toxicity of isoxadifen-ethyl (S3) against aphids was not detected in the plant-free Sachez test.

For test [8], the system named is Jasmonate (JA). In words: Jasmonate (JA) concentration in leaves of treated plants, GC-MS/MS. As to conditions: 0 hours. The test is classed as in vivo, barley.
Setting [9] is: barley leaves 6 h after spray application, median induction factor vs control.
[10] abbreviates: barley leaves 6 h after spray application, rates of Table 1 (150 g a.i./ha, S7 500), median induction factor vs control.

As to `COC(=O)C1=NN(c2ccc(Cl)cc2Cl)C(C)(C(=O)OC)C1` (stereo not drawn) [S1, Mefenpyr-dimethyl], the fold induction turned out to be 1 in test [1] (setting [9]); 1 in test [2]; 1 in test [3] (setting [9]); 1 in test [4] (setting [9]); 6.32 in test [5] (setting [9]).
Take `O=C(O)C1=NN(c2ccc(Cl)cc2Cl)C(c2ccc(F)cc2)C1` (stereo not drawn) [S2]: the fold induction in test [1] (setting [9]), in test [2], in test [3] (setting [9]), in test [4] (setting [9]) and in test [5] (setting [9]) was 1 throughout.
For `CCOC(=O)C1=NOC(c2ccccc2)(c2ccccc2)C1` [S3, Isoxadifen-ethyl], the fold induction at 150 g/ha was determined as 97.7 in test [1]; 3.68 in test [2]; 2.41 in test [3]; 1 in test [4]; 2.71 in test [5]. Moreover, the “Aphid populations less than the controls” value in test [6] (after 7 days) was found to be 50%; in test [6] (after 14 days), 70%. Also, in test [7], the “Direct toxicity against aphids” value was “not detected”. Also, the “Jasmonate (JA) concentration” value in test [8] (30 g a.i/ha) and in test [8] (150 g a.i./ha) was 140 pmol/g leaf tissue each time.
Turning to `CCCCCC(C)OC(=O)COc1ccc(Cl)c2cccnc12` (stereo not drawn) [S4, Cloquintocet-mexyl], the fold induction in test [1] (setting [9]), in test [2], in test [3] (setting [9]), in test [4] (setting [9]) and in test [5] (setting [9]) was 1 throughout.
As for `CCOC(=O)C(Oc1ccc(Cl)c2cccnc12)C(=O)OCC` [S5], the fold induction in test [1] (setting [9]) is 1; in test [2], 1; in test [3] (setting [9]), 1; in test [4] (setting [9]), 1; in test [5] (setting [9]), 7.84.
Regarding `NC(=O)c1ccc(C(F)(F)F)nc1O` [S6], the fold induction in test [1] (setting [9]) is 1; in test [2], 1; in test [3] (setting [9]), 1; in test [4] (setting [9]) it was 1; in test [5] (setting [9]) it was 5.1.
As for `O=C(NO)c1ccccc1O` [S7, Salicyl hydroxamate], the “Expression value, 1.1 Contig2631_at” value in test [1] (setting [10]) is given as 1.00 x times. Moreover, the “Expression value, 1.12 Contig6611_at” value in test [3] (setting [10]) was determined as 2.31 x times. Moreover, the “Expression value, 1.16 Contig3096_s_at” value in test [4] (setting [10]) is 2.06 x times. The “Expression value, 2.4 HD07M22r_s_at” value in test [5] (setting [10]) is reported as 1.00 x times.
With `CSC(=O)c1cccc2nnsc12` [S8, Acibenzolar-S-methyl], the fold induction in test [1] (setting [9]) turned out to be 1; in test [2], 1; in test [3] (setting [9]), 3.61; in test [4] (setting [9]) it was 2.68; in test [5] (setting [9]), 1.
As for `O=C(O)c1cc(Cl)nc(Cl)c1` [S9], the fold induction at 150 g/ha in test [1] was found to be 1; in test [2] it was 1; in test [3], 2; in test [4], 1; in test [5] it was 1.
With `O=C(O)c1cc(Cl)cc(Cl)c1O` [S10], the fold induction in test [1] (setting [9]) was found to be 1; in test [2], 1; in test [3] (setting [9]), 2.38; in test [4] (setting [9]), 1; in test [5] (setting [9]), 1.

These data come from patent publication US20070265164A1, “Active Substances for Increasing Pathogenic Defense in Plants and Methods for the Detection Thereof” (Bayer Cropscience GmbH, priority 2004, published 2007).
